This assay deals with C-Raf FL (full length CRAF with Y340E and Y341E activating mutations, co-expressed with h14-3-3 zeta) (Homo sapiens (Human), UniProt P04049, Y340E/Y341E). The assay is described as follows: In vitro Raf activity determination, AlphaScreen p-MEK readout, c-Raf (C-Raf FL). The assay is classed as biochemical. To be noted: c-Raf approximately 4 nM, ATP 1 μM, pre-incubation 60 minutes, reaction 1 hour. The gist of the method:
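Full-length C-Raf (~4 nM) pre-incubated 60 min at room temperature with compound and kinase-dead biotinylated MEK1 (~10 nM) in Tris pH 7.5, 15 mM MgCl2, BSA, DTT. Reaction started with 1 μM ATP and run 1 h at room temperature. Phospho-MEK detected by AlphaScreen with anti-p-MEK antibody.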
(Bead proximity is the source of the signal in Alpha formats.)

Data on 26 molecules can be found in patent publication US10377770B2 (Novartis AG, priority 2015, dated 2019).

Molecules are shown by their SMILES.

C-Raf FL (full length CRAF with Y340E and Y341E activating mutations, co-expressed with h14-3-3 zeta), sequence (P04049 whole entry Y340E/Y341E): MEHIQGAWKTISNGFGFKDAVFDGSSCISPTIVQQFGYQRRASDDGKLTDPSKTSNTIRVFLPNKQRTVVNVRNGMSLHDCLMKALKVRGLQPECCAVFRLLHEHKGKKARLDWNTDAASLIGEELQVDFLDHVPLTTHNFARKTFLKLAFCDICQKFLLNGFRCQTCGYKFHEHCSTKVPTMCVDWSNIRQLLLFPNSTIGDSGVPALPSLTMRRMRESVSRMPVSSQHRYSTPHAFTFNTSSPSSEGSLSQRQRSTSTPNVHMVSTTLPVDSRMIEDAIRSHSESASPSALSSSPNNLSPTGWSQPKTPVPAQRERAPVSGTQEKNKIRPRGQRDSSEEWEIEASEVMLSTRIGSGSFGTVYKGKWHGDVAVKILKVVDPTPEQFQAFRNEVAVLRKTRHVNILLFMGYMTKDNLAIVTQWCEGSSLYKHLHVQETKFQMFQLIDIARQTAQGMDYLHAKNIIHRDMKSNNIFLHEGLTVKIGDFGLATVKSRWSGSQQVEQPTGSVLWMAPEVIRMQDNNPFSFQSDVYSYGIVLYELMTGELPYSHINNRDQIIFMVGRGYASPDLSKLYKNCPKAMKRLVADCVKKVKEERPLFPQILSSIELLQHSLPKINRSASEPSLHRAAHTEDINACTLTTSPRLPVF
C-Raf FL (full length CRAF with Y340E and Y341E activating mutations, co-expressed with h14-3-3 zeta), sequence (P63104 whole entry partner): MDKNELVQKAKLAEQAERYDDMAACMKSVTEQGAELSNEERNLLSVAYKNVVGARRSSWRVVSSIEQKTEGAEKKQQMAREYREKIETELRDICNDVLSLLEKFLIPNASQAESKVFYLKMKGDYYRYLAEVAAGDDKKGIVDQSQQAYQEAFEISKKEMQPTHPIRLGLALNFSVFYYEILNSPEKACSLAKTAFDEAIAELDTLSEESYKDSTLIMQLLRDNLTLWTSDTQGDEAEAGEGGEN

One may read the IC50 as the concentration that gives 50% inhibition. `Cc1ccc(NC(=O)c2ccnc(C(F)(F)F)c2)cc1-c1cnc2c(c1)N1CCOC[C@H]1C(F)(F)[C@H]2O` [Example 167, N-(3-((4aS,6S)-5,5-difluoro-6-hydroxy-1,2,4,4a,5,6-hexahydro-[1,4]oxazino[4,3-a][1,5]naphthyridin-9-yl)-4-methylphenyl)-2-(trifluoromethyl)isonicotinamide] gave an IC50 of 77 pM.
Consider `Cc1ccc(NC(=O)c2ccnc(C(F)(F)F)c2)cc1-c1cnc2c(c1)N1CCOC[C@@H]1C(F)(F)[C@@H]2O` [Example 168, N-(3-((4aR,6R)-5,5-difluoro-6-hydroxy-1,2,4,4a,5,6-hexahydro-[1,4]oxazino[4,3-a][1,5]naphthyridin-9-yl)-4-methylphenyl)-2-(trifluoromethyl)isonicotinamide], for which the IC50 is 770 pM.
`CCN1C(=O)[C@H]2COCC[C@@H]2c2cc(-c3cc(NC(=O)c4ccnc(C(F)(F)F)c4)ccc3C)cnc21` [Example 236, N-(3-((4aR,10bS)-6-ethyl-5-oxo-1,4,4a,5,6,10b-hexahydro-2H-pyrano[3,4-c][1,8]naphthyridin-9-yl)-4-methylphenyl)-2-(trifluoromethyl)isonicotinamide] yielded an IC50 of 300 pM.
In the case of `CCN1C(=O)Cc2nncn2-c2cc(-c3cc(NC(=O)c4ccnc(C(F)(F)F)c4)ccc3C)cnc21` [Example 237, N-(3-(6-ethyl-5-oxo-5,6-dihydro-4H-pyrido[2,3-b][1,2,4]triazo1o[4,3-d][1,4]diazepin-9-yl)-4-methylphenyl)-2-(trifluoromethyl) isonicotinamide], the IC50 is 1300 pM.
For `CCN1C(=O)Cc2nncn2-c2cc(-c3cc(NC(=O)c4cccc(C(F)(F)F)c4)cnc3C)cnc21` [Example 238, N-(5-(6-ethyl-5-oxo-5,6-dihydro-4H-pyrido[2,3-b][1,2,4]triazo1o[4,3-d][1,4]diazepin-9-yl)-6-methylpyridin-3-yl)-3-(trifluoromethyl) benzamide], 2700 pM corresponded to half-maximal inhibition (IC50).
In the case of `CCN1C(=O)C(C)(C)c2nncn2-c2cc(-c3cc(NC(=O)c4ccnc(C(F)(F)F)c4)ccc3C)cnc21` [Example 239, N-(3-(6-ethyl-4,4-dimethyl-5-oxo-5,6-dihydro-4H-pyrido[2,3-b][1,2,4]-triazolo[4,3-d][1,4]diazepin-9-yl)-4 methylphenyl)-2-(trifluoromethyl) isonicotinamide] it was 4700 pM; in that of `CCN1C(=O)C(C)(C)c2nncn2-c2cc(-c3cc(NC(=O)c4cccc(C(F)(F)F)c4)cnc3C)cnc21` [Example 240, N-(5-(6-ethyl-4,4-dimethyl-5-oxo-5,6-dihydro-4H-pyrido[2,3-b][1,2,4]triazolo[4,3-d][1,4]diazepin-9-yl)-6-methylpyridin-3-yl)-3-(trifluoromethyl) benzamide], 10600 pM; in that of `CCN1Cc2nncn2-c2cc(-c3cc(NC(=O)c4ccnc(C(F)(F)F)c4)ccc3C)cnc2C1=O` [Example 241, N-(3-(5-ethyl-6-oxo-5,6-dihydro-4H-pyrido[2,3-f][1,2,4]-triazolo[4,3-a][1,4]diazepin-9-yl)-4-methylphenyl)-2-(trifluoromethyl) isonicotinamide], 9500 pM.
With `CCN1C(=O)N2COCCC2(C)c2cc(-c3cc(NC(=O)c4ccnc(C(F)(F)F)c4)ccc3C)ccc21` (centres unmarked) [Example 242, N-(3-(7-ethyl-11b-methyl-6-oxo-1,2,4,6,7,11b-hexahydro-[1,3]oxazino[3,4-c]quinazolin-10-yl)-4-methylphenyl)-2-(trifluoromethyl) isonicotinamide] the figure was 300 pM; with `CCN1C(=O)N2COCCC2(C)c2cc(-c3cc(NC(=O)c4cccc(C(F)(F)F)c4)cnc3C)ccc21` (centres unmarked) [Example 243], 600 pM.
In the case of `CCN1C(=O)N2COCCC2(C)c2cc(-c3cc(NC(=O)c4ccnc(C(F)(F)F)c4)ccc3C)ccc21` (centres unmarked) [Example 244, N-(3-(7-ethyl-11b-methyl-6-oxo-1,2,4,6,7,11b-hexahydro-[1,3]oxazino[3,4-c]quinazolin-10-yl)-4-methylphenyl)-2-(trifluoromethyl) isonicotinamide] it was 100 pM; in that of `CCN1C(=O)N2COCCC2(C)c2cc(-c3cc(NC(=O)c4cccc(C(F)(F)F)c4)cnc3C)ccc21` (centres unmarked) [Example 245, N-(5-(7-ethyl-11b-methyl-6-oxo-1,2,4,6,7,11b-hexahydro-[1,3]oxazino[3,4-c]quinazolin-10-yl)-6-methylpyridin-3-yl)-3-(trifluoromethyl) benzamide], 200 pM.
`CCN1C(=O)C2CCOCCC2c2cc(-c3cc(NC(=O)c4ccnc(C(F)(F)F)c4)ccc3C)cnc21` (stereo not drawn) [Example 246, N-(3-((5a, 11b-cis)-7-ethyl-6-oxo-1,2,4,5,5a,6,7,11b-octahydrooxepino [4,5-c][1,8]naphthyridin-10-yl)-4-methylphenyl)-2-(trifluoromethyl) isonicotinamide] displayed an IC50 of 200 pM.
With `CCN1C(=O)C2CCOCCC2c2cc(-c3cc(NC(=O)c4ccnc(C(F)(F)F)c4)ccc3C)cnc21` (stereo not drawn) [Example 247, N-(3-((5a, 11b-cis)-7-ethyl-6-oxo-1,2,4,5,5a,6,7,11b-octahydrooxepino 4,5-c][1,8]naphthyridin-10-yl)-4-methylphenyl)-2-(trifluoromethyl) isonicotinamide] the figure was 300 pM; with `CCN1C(=O)C2CCOCCC2c2cc(-c3cc(NC(=O)c4ccnc(C(F)(F)F)c4)ccc3C)cnc21` (centres unmarked) [Example 248], 500 pM.
With `CCN1C(=O)C2CCOCCC2c2cc(-c3cc(NC(=O)c4ccnc(C(F)(F)F)c4)ccc3C)cnc21` (stereo not drawn) [Example 249, N-(3-((5a, 11b- trans)-7-ethyl-6-oxo-1,2,4,5,5a,6,7,11boctahydrooxepino [4,5-c][1,8]naphthyridin-4,5-10-yl)-4-methylphenyl)-2-(trifluoromethyl) isonicotinamide] the figure was 100 pM; with `CCN1C(=O)C2CCOCCC2c2cc(-c3cc(NC(=O)c4cccc(C(F)(F)F)c4)cnc3C)cnc21` (stereo not drawn) [Example 250, N-(5-((5a, 11b- trans)-7-ethyl-6-oxo-1,2,4,5,5a,6,7,11b-octahydrooxepino [4,5-c][1,8]naphthyridin-10-yl)-6-methylpyridin-3-yl)-3-(trifluoromethyl) benzamide], 300 pM; with `CCN1C(=O)C2CCOCCC2c2cc(-c3cc(NC(=O)c4ccnc(C(C)(C)F)c4)cnc3C)cnc21` (stereo not drawn) [Example 251, N-(5-((5a, 11b- trans)-7-ethyl-6-oxo-1,2,4,5,5a, 6,7,11b-octahydrooxepino [4,5-c[1,8]naphtliyridin-10-yl)-6-methylpyridin-3-yl)-2-(2-fluoropropan-2-yl)isonicotinamide], 200 pM.
In the case of `CCN1C(=O)[C@@H]2COCC[C@H]2c2cc(-c3cc(NC(=O)c4ccnc(C(F)(F)F)c4)cnc3C)cnc21` [Example 252, N-(5-((4aS, 10bR)-6-ethyl-5-oxo-2,4,4a,5,6,10b-hexahydro-1H-pyrano[3,4-c][1,8]naphthyridin-9-yl)-6-methylpyridin-3-yl)-2-(trifluoromethyl) isonicotinamide] it was 100 pM; in that of `CCN1C(=O)[C@@H]2COCC[C@H]2c2cc(-c3cc(NC(=O)c4ccnc(C(F)(F)F)c4F)ccc3C)cnc21` [Example 253, N-(3-((4aS, 10bR)-6-ethyl-5-oxo-2,4,4a,5,6,10b-hexahydro-1H-pyrano[3,4-c][1,8]naphthyridin 9-yl)-4-methylphenyl)-3-fluoro-2-(trifluoromethyl) isonicotinamide], 3200 pM.
In turn, `CCN1C(=O)[C@@H]2COCC[C@H]2c2cc(-c3cc(NC(=O)c4ccnc(C(C)(C)F)c4)ccc3C)cnc21` [Example 254, N-(3-((4aS, 10bR)-6-ethyl-5-oxo-2,4,4a,5,6,10b-hexahydro-1H-pyrano[3,4-c][1,8]naphthyridin-9-yl)-4-methylphenyl)-2-(2-fluoropropan-2-yl)isonicotinamide] returned a concentration for half-maximal inhibition (IC50) of 200 pM.
Regarding `CCN1C(=O)[C@H]2COCC[C@@H]2c2cc(-c3cc(NC(=O)c4cccc(C(F)(F)F)c4F)cnc3C)cnc21` [Example 255, N-(5-((4aR, 10bS)-6-ethyl-5-oxo-2,4,4a,5,6,10b-hexahydro-1H-pyrano[3,4-c][1,8]naphthyridin-9-yl)-6-methylpyridin-3-yl)-2-fluoro-3-(trifluoromethyl) benzamide], the midpoint of inhibition, the IC50, lay at 800 pM.
`CCN1C(=O)[C@@H]2COCC[C@H]2c2cc(-c3cc(NC(=O)c4cccc(C(F)(F)F)c4F)cnc3C)cnc21` [Example 256, N-(5-((4aS, 10bR)-6-ethyl-5-oxo-2,4,4a,5,6,10b-hexahydro-1H-pyrano[3,4-c][1,8]naphthyridin-9-yl)-6-methylpyridin-3-yl)-2-fluoro-3-(trifluoromethyl) benzamide] had an IC50 of 100 pM.
Turning to `Cc1ncc(NC(=O)c2cccc(C(F)(F)F)c2)cc1-c1cnc2c(c1)[C@@H]1CCOC[C@H]1C(=O)N2CCO` [Example 259, N-(5-((4aS, 10bR)-6-(2-hydroxyethyl)-5-oxo-2,4,4a,5,6,10b-hexahydro-1H-pyrano[3,4-c][1,8]naphthyridin-9-yl)-6-methylpyridin-3-yl)-3-(trifluoromethyl) benzamide], the IC50 was determined as 600 pM.
In the case of `Cc1ncc(NC(=O)c2ccnc(C(C)(C)F)c2)cc1-c1cnc2c(c1)[C@@H]1CCOC[C@H]1C(=O)N2CCO` [Example 260, 2-(2-fluoropropan-2-yl)-N-(5-((4aS, 10bR)-66-(2-hydroxyethyl)-5-oxo-2,4,4a,5,6,10b-hexahydro-1H-pyrano[3,4-c][1,8]naphthyridin-9-yl)-6-methylpyridin-3-yl)isonicotinamide] it was 100 pM.
With `Cc1ccc(NC(=O)c2ccnc(C(F)(F)F)c2)cc1-c1cnc2c(c1)[C@@H]1CCOC[C@H]1C(=O)N2C(C)C` [Example 261, N-(3-((4aS, 10bR)-6-isopropyl-5-oxo-2,4,4a,5,6,10b-hexahydro-1H-pyrano[3,4-c][1,8]naphthyridin-9-yl)-4-methylphenyl)-2 (trifluoromethyl) isonicotinamide] the figure was 200 pM.
